# In PMC7259758 (PLoS ONE, 2020):
# Read-outs that look alike come from different tables or passages of the source.
# Assays:
# [1] = test system: triple-exon skipping of MDM2 pre-mRNA in SK-MEL-2/Luc-MDM2 cells; test: TESLR (Triple Exon Skipping Luciferase Reporter) dose response; conditions: for IC50: Homo sapiens, SK-MEL-2, 4 h; for TESLR Maximum fold change / EC50: SK-MEL-2/Luc-MDM2 cells, luciferase activity; for TESLR Maximum fold change: 4 hours; for EC50: read-out: TESLR EC50, 4 hour treatment
# Protocol: SK-MEL-2/MDM2-Luc stable cells were cultured in MEM medium with Earle's salts and L-glutamine containing 1 mM sodium pyruvate, 10% FCS and 10 mM Hepes and plated at a density of 10,000/well in 96-well plates and incubated overnight at 37°C in 5% CO2. The following day, cells were treated with serial dilutions of compounds for 4 hrs, ONE-Glo reagents (Promega) were added to measure the luciferase activity on an EnVision plate reader. SD6 and 0.5% DMSO were used as positive and negative controls, respectively. Relative luminescent units were plotted against corresponding drug concentrations and fitted with a standard four parameter sigmoidal curve with GraphPad Prism.
# The TESLR assay in SK-MEL-2/Luc-MDM2 cells with 4 hour treatment. SK-MEL-2/Luc-MDM2 stable cells were plated at a density of 20,000 cells/well in 96-well plates and incubated overnight at 37°C in 5% CO2. The following day, cells were treated with either 0.5% DMSO or serial dilution of hits identified from the library screen in 0.5% DMSO for 4 hours. ONE-Glo™ EX reagent (Promega) was added to measure the luciferase activity using an EnVision plate reader. Relative luminescent units were plotted against corresponding drug concentrations and fitted with a standard four parameter sigmoidal curve with GraphPad Prism.
# SK-MEL-2/Luc-MDM2 stable cells were plated at a density of 20,000 cells/well in 96-well plates and incubated overnight at 37°C in 5% CO2. The following day, cells were treated with serial dilutions of the indicated compounds for 4 hours and ONE-Glo™ EX reagents (Promega) were added to measure the luciferase activity.
# [2] = test system: CLK1; parameters: method as in PMID 29191878; conditions: chemoproteomic analysis; read-out: affinity for CLK1 (IC50); cited from earlier work
# [3] = biological target: T1, SF3B1 (Homo sapiens, UniProt O75533+Q7RTV0); test: Competitive antagonist assay (TESLR in the presence of SD6 or hit compound); assay type: cell-based
# T1 construct: endogenous in cells
# Protocol: SK-MEL-2/Luc-MDM2 stable cells were plated at a density of 20,000 cells/well in 96-well plates and incubated overnight at 37°C in 5% CO2.[27, 28] The following day, cells were treated with 14 analogs using serial dilution for one hour. The list of compounds screened as potential TESLR antagonists are show in SI file. After one-hour pre-treatment, 4 μM of SD6 were added to the pre-treated cells for another 4 hours. Either 0.5% DMSO or serial dilutions of SD6 were used to treat cells for 4 hours as controls. At the end of incubation time, ONE-Glo™ EX reagents (Promega) were added to measure the luciferase activity. […]
# Fig 6 Competitive antagonist assay. (Left Panel) The assay that identified two antagonists of SD6 activity in the TESLR screen, which are useful for the determination of SF3B1 binding. Relative luminescent units were plotted against corresponding drug concentrations and fitted with a standard four parameter sigmoidal curve with GraphPad Prism. (Right Panel) The structures of the antagonists and SD6. See SI for chemistry details.
# . SK-MEL-2/Luc-MDM2 stable cells were plated at a density of 20000/well in 96-well plates and incubated overnight at 37°C in 5% CO2. […]. After one-hour pre-treatment, serial dilutions of the sudemycinol C were added to the pre-treated cells for another 4 hours. […]. At the end of incubation time, ONE-Glo™ EX reagents (Promega) were added to measure the luciferase activity. […]. DR: dose response.
# [4] = biological target: T2, CDK2/cyclinA (h) (Homo sapiens, UniProt P24941); test: Radiometric protein kinase assay (Eurofins); assay type: biochemical; conditions: ATP 45 μM
# T2 construct: purchased Eurofins, Dundee, Scotland
# Protocol: Enzymatic biochemical activities were evaluated in radiometric protein kinase assays (Eurofins, Dundee, Scotland). Kinases are incubated with buffer, substrate and [γ-^33P]-ATP (specific activity approx. 500 cpm/pmol, concentration as required). The reaction is initiated by the addition of the MgATP mix. After incubation for 40 minutes at room temperature, the reaction is stopped by the addition of 3% phosphoric acid solution. 10 μL of the reaction is then spotted onto a P30 filtermat and washed three times for 5 minutes in 75 mM phosphoric acid and once in methanol prior to drying and scintillation counting. All compounds are prepared to 50x final assay concentration in 100% DMSO. Positive control wells contain all components of the reaction with 2% DMSO. Blank wells contain all components of the reaction, with a reference inhibitor replacing the compound of interest. […] Compounds were screened at 1 μM in duplicate or tested at 10 concentrations at half log dilution starting from 10 μM in singlicate. Dose response curves were fitted with four parameter logistic curve to obtain IC50 values.
# [5] = test system: phosphorylation of SF3B1; test: Western blot of nuclear extracts, phosphor-SF3B1; conditions: HCT116 cells, 4 h, 10 μM
# Protocol: HCT116 cells were seeded at 3 million cells per 100 mm culture plate. The next day cells were treated with 5 μM or 10 μM of each compound for 4h and 8h. […] The pellet was snap frozen on dry ice and then thawed and spun at 12K rpm for 5 min, 4C. The supernatant was collected (nuclear extract) and protein concentrations determined using BCA Protein Assay Kit. […] The proteins were transferred to PVDF membrane using a wet transfer system. […] After the secondary antibody incubation, membranes were washed 4X with PBS containing 0.1% Tween-20 and 1X with PBS before imaging using the Li-Cor Odyssey imaging system.
# Lanes 6 to 10 are nuclear extracts from Rh18 cells.
# [6] = test system: MDM2 pre-mRNA splicing in Rh18 cells; test: RT-PCR confirmation of splicing changes, MDM2; assay type: cell-based; conditions: 4 h, SD6 10 μM, compound 1 10 μM, compound 2 5 μM, compound 3 10 μM
# Protocol: RH-18 cells were cultured in RPMI 1640 medium containing 10% FCS. Cells are all maintained in humidified incubator with 5% CO2 at 37°C. Rh18 cells were exposed to 0.5% DMSO or SD6 10 μM, Cpd1 10 μM, Cpd2 5 μM or Cpd3 10 μM for 4 h. Total RNA was extracted and converted to cDNA. PCR was performed using NEB Q5 Master Mix and specific primers listed below (Table 2) according to the manufacturer’s instruction and standard PCR protocols: 50 ng cDNA and 30 μl of the final reaction volume was used. PCR products were subjected to 3% agarose gel electrophoresis.
# AS patterns were identified with compound treatment for MDM2 and RBM39 transcripts. Ubiquitin (UBQ) transcripts were used as a control since these are not spliced. […] Rh18 cells were treated with either DMSO control or compounds for 4 h. Total RNA was extracted and converted to cDNA. PCR was performed using corresponding primers and PCR products were subjected to 3% agarose gel electrophoresis.
# [7] = biological target: T3, DYRK2 (h) (Homo sapiens, UniProt Q92630); test: Radiometric protein kinase assay (Eurofins); assay type: biochemical; conditions: ATP 15 μM
# T3 construct: purchased Eurofins, Dundee, Scotland
# T3 sequence (Q92630 1-601): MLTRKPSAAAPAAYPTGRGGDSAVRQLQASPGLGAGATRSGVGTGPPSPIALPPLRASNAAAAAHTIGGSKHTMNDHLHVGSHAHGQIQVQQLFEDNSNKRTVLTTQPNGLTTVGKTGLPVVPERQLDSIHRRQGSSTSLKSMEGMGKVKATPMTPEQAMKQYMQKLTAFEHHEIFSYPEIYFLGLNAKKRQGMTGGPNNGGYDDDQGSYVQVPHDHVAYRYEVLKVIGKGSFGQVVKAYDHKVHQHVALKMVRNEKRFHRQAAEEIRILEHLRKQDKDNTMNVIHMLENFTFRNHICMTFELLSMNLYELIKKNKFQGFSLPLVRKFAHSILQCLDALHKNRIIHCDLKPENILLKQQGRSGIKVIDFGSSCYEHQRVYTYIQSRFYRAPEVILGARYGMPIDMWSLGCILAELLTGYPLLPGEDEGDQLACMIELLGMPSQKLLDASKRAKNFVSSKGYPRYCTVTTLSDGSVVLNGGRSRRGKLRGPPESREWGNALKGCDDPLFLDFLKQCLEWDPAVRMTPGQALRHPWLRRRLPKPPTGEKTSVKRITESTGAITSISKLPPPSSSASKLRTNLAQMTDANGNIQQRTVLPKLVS
# Protocol: (§1) Enzymatic biochemical activities were evaluated in radiometric protein kinase assays (Eurofins, Dundee, Scotland). Kinases are incubated with buffer, substrate and [γ-^33P]-ATP (specific activity approx. 500 cpm/pmol, concentration as required). The reaction is initiated by the addition of the MgATP mix. After incubation for 40 minutes at room temperature, the reaction is stopped by the addition of 3% phosphoric acid solution. 10 μL of the reaction is then spotted onto a P30 filtermat and washed three times for 5 minutes in 75 mM phosphoric acid and once in methanol prior to drying and scintillation counting. All compounds are prepared to 50x final assay concentration in 100% DMSO. Positive control wells contain all components of the reaction with 2% DMSO. Blank wells contain all components of the reaction, with a reference inhibitor replacing the compound of interest. Each kinase is assigned a standard assay concentration of ATP within 20 μM of its apparent Km. Compounds were screened at 1 μM in duplicate or tested at 10 concentrations at half log dilution starting from 10 μM in singlicate. Dose response curves were fitted with four parameter logistic curve to obtain IC50 values. […]
# (§2) Staurosporine is used as reference for all tested enzymes except for SRPK3 (reference inhibitor: K-252a. Nocardiopsis sp), NEK2 (reference inhibitor: […]), and CK2, CK2α2, MAPK1, MAPK2 (reference inhibitor: PKR Inhibitor). See Table 1 below for additional details.
# [8] = biological target: T4, CLK4(h) (Homo sapiens, UniProt Q9HAZ1); test: Radiometric protein kinase assay (Eurofins); assay type: biochemical; conditions: ATP 10 μM
# T4 construct: purchased Eurofins, Dundee, Scotland
# Protocol: as §1, §2
# [9] = biological target: T5, DYRK1A(h) (Homo sapiens, UniProt Q13627); test: Radiometric protein kinase assay (Eurofins); assay type: biochemical; conditions: ATP 45 μM
# T5 construct: purchased Eurofins, Dundee, Scotland
# Protocol: as §1, §2
# [10] = biological target: T6, CK2 (h) (Homo sapiens, UniProt P68400); test: Radiometric protein kinase assay (Eurofins); assay type: biochemical; conditions: ATP 10 μM
# T6 construct: purchased Eurofins, Dundee, Scotland
# Protocol: as §1, §2
# [11] = biological target: T7, CLK1(h) (Homo sapiens, UniProt P49759); test: Radiometric protein kinase assay (Eurofins); assay type: biochemical; conditions: ATP 10 μM
# T7 construct: purchased Eurofins, Dundee, Scotland
# Protocol: as §1, §2
# [12] = biological target: T8, MAPK2 (h) (Homo sapiens, UniProt P28482); test: Radiometric protein kinase assay (Eurofins); assay type: biochemical; conditions: ATP 155 μM
# T8 construct: purchased Eurofins, Dundee, Scotland
# Protocol: as §1, §2
# [13] = biological target: T9, CLK3(h) (Homo sapiens, UniProt P49761); test: Radiometric protein kinase assay (Eurofins); assay type: biochemical; conditions: ATP 90 μM
# T9 construct: purchased Eurofins, Dundee, Scotland
# Protocol: as §1, §2
# [14] = biological target: T10, CK2α2 (h) (Homo sapiens, UniProt P19784); test: Radiometric protein kinase assay (Eurofins); assay type: biochemical; conditions: ATP 10 μM; read-out: CK2a2 IC50
# T10 construct: purchased Eurofins, Dundee, Scotland
# Protocol: as §1, §2
# [15] = biological target: T11, SRPK1(h) (Homo sapiens, UniProt Q96SB4); test: Radiometric protein kinase assay (Eurofins); assay type: biochemical; conditions: ATP 10 μM
# T11 construct: purchased Eurofins, Dundee, Scotland
# Protocol: as §1, §2
# [16] = biological target: T12, SRPK3 (h) (Homo sapiens, UniProt Q9UPE1); test: Radiometric protein kinase assay (Eurofins); assay type: biochemical; conditions: ATP 15 μM
# T12 construct: purchased Eurofins, Dundee, Scotland
# Protocol: as §1, §2
# [17] = biological target: T13, MAPK1 (h) (Homo sapiens, UniProt P27361); test: Radiometric protein kinase assay (Eurofins); assay type: biochemical
# T13 construct: purchased Eurofins, Dundee, Scotland
# Protocol: as §1, §2
# [18] = biological target: T14, DYRK1B (h) (Homo sapiens, UniProt Q9Y463); test: Radiometric protein kinase assay (Eurofins); assay type: biochemical; conditions: ATP 45 μM
# T14 construct: purchased Eurofins, Dundee, Scotland
# Protocol: as §1, §2
# [19] = biological target: T15, AKT3 (Homo sapiens, UniProt Q9Y243); test: Radiometric protein kinase assay (Eurofins); assay type: biochemical; conditions: ATP 45 μM
# T15 construct: purchased Eurofins, Dundee, Scotland
# Protocol: as §1, §2
# [20] = biological target: T16, SRPK2 (h) (Homo sapiens, UniProt P78362); test: Radiometric protein kinase assay (Eurofins); assay type: biochemical; conditions: ATP 10 μM
# T16 construct: purchased Eurofins, Dundee, Scotland
# Protocol: as §1, §2
# [21] = biological target: T17, GSK3α(h) (Homo sapiens, UniProt P49840); test: Radiometric protein kinase assay (Eurofins); assay type: biochemical; conditions: ATP 10 μM
# T17 construct: purchased Eurofins, Dundee, Scotland
# Protocol: as §1, §2
# T15 sequence (Q9Y243 whole entry): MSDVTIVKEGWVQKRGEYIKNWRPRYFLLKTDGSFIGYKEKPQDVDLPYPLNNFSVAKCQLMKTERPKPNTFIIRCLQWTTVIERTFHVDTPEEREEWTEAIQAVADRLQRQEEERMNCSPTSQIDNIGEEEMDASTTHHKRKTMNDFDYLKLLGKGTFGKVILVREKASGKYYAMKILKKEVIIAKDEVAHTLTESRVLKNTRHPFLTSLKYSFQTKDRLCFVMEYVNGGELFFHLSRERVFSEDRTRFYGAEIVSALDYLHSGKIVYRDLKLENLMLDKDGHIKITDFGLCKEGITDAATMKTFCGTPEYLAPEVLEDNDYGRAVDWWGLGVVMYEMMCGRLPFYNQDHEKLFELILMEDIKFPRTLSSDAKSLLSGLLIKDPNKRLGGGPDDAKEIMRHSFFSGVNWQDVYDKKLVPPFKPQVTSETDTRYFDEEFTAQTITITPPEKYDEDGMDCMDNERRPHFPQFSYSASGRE
# T12 sequence (Q9UPE1 whole entry): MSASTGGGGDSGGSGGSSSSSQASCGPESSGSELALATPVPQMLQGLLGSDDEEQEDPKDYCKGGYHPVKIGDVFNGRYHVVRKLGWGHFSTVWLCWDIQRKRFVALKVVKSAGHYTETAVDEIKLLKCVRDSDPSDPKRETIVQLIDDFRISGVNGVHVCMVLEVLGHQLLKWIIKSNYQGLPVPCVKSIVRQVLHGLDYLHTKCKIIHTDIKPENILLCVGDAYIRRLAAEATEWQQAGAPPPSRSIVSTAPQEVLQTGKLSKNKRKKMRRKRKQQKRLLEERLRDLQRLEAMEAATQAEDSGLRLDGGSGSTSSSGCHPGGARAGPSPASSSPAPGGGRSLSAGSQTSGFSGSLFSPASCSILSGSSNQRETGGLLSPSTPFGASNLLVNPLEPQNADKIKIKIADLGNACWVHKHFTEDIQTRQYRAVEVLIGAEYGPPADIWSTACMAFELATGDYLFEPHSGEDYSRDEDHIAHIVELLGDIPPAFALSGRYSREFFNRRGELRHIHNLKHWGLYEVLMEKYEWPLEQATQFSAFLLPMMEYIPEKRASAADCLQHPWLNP
# T10 sequence (P19784 whole entry): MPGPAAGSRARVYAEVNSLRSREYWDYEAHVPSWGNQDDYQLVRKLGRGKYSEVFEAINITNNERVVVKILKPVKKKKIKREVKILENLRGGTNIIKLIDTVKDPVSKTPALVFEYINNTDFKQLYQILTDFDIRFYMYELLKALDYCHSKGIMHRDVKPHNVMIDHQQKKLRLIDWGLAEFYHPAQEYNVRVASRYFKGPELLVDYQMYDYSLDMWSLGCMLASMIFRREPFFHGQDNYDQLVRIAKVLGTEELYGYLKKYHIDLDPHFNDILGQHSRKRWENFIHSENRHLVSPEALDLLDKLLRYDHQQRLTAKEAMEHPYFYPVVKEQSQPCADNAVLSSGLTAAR
# T4 sequence (Q9HAZ1 whole entry): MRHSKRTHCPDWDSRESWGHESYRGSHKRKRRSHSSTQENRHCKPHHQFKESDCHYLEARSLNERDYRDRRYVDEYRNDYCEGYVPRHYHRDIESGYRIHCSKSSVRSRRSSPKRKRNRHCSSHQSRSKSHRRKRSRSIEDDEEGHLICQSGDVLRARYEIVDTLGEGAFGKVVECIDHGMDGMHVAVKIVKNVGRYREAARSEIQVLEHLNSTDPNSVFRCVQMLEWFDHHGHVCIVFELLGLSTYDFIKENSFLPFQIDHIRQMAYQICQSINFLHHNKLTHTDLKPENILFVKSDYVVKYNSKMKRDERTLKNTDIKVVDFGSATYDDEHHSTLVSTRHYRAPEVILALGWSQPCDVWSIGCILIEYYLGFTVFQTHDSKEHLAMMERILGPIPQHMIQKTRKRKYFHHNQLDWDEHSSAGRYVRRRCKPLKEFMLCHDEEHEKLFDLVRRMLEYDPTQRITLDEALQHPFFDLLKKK
# T17 sequence (P49840 whole entry): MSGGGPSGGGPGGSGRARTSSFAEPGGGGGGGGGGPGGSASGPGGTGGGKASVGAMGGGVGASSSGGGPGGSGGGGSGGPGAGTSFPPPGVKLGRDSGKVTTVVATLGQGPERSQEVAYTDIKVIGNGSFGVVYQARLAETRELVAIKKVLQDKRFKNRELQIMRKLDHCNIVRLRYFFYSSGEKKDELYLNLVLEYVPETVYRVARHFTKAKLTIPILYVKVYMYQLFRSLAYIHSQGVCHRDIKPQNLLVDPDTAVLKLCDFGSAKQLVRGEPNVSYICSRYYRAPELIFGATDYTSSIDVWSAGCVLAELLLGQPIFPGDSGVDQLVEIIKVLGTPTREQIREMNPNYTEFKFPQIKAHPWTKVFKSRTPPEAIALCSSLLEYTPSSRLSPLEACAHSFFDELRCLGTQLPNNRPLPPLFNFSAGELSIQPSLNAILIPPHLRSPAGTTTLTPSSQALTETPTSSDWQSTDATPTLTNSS
# T16 sequence (P78362 whole entry): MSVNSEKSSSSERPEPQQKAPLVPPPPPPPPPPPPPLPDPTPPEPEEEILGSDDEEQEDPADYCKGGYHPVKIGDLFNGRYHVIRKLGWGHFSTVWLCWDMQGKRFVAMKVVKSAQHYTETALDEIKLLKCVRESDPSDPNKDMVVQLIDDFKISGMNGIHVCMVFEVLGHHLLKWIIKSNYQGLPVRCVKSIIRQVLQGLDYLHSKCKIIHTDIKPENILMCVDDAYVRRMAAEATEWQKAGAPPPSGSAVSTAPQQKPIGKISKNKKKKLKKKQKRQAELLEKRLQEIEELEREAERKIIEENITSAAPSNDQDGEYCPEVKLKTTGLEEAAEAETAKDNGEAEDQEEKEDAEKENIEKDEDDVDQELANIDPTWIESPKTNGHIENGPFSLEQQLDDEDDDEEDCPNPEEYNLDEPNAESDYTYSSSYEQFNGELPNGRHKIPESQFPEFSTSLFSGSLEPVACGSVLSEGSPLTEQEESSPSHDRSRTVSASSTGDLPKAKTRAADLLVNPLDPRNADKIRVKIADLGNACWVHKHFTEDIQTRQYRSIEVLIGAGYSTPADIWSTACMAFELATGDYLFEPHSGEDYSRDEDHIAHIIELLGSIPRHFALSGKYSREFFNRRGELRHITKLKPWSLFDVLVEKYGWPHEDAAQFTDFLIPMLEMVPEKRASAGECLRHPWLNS
# T8 sequence (P28482 whole entry): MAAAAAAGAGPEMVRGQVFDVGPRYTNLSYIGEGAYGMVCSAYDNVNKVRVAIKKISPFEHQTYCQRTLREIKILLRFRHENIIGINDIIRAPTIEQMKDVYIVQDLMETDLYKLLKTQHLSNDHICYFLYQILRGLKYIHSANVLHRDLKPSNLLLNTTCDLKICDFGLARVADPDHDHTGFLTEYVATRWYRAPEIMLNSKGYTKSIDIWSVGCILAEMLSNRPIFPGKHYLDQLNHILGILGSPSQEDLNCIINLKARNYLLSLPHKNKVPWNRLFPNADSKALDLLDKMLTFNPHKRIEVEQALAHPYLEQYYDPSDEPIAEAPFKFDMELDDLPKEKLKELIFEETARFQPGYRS
# T11 sequence (Q96SB4 whole entry): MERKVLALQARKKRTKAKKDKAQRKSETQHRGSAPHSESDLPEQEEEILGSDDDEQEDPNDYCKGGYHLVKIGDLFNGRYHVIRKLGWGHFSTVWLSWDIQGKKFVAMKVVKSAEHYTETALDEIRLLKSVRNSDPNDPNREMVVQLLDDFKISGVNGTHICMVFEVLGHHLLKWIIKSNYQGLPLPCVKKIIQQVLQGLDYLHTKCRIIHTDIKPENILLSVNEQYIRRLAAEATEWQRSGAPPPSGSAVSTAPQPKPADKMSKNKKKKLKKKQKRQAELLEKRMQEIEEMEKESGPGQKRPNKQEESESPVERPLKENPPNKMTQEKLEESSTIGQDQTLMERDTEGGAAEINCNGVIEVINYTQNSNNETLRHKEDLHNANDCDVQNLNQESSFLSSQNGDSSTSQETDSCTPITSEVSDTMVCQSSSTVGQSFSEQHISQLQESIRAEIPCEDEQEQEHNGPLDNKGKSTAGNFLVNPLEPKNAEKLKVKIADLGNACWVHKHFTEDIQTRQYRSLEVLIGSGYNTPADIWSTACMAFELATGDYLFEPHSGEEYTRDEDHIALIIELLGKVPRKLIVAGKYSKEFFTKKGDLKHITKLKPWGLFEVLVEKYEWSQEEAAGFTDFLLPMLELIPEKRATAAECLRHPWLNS
# T9 sequence (P49761 whole entry): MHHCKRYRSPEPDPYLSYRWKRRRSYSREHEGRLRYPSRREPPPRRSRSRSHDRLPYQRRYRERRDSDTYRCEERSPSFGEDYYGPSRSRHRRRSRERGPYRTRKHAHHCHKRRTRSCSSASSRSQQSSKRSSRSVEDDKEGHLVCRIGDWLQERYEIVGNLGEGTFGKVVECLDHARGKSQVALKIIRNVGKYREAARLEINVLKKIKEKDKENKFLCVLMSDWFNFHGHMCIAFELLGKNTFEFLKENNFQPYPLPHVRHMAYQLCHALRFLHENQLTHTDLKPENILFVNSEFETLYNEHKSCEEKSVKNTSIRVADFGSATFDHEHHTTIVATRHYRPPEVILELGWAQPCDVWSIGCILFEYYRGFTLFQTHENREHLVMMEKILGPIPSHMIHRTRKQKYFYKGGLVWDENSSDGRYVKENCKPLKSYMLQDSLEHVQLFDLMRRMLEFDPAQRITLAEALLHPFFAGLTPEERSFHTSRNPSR
# T13 sequence (P27361 whole entry): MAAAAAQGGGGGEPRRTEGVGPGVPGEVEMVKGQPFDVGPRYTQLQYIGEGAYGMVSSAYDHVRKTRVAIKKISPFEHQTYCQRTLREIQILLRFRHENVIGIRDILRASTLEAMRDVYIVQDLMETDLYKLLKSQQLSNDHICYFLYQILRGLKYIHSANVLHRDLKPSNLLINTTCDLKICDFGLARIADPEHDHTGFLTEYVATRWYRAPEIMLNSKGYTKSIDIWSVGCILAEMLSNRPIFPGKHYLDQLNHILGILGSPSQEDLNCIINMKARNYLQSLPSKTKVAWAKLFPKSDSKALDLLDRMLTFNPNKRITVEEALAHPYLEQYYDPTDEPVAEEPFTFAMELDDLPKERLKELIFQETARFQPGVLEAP
smiles,measurement,setting,value
CC(=O)c1c(C)c2cnc(Nc3ccc(N4CCNCC4)cn3)nc2n(C2CCCC2)c1=O [palbociclib],IC50,[1]; read-out: TESLR IC50 (as printed in Fig 5),~291000 nM
same,IC50,[1]; read-out: TESLR IC50 in inducing triple exon skipping,10000 to 300000 nM
same,TESLR Maximum fold change,[1],2.92
same,IC50,[2],276 nM
"CC(C=CC1CC2(CO2)CC(C)(C)O1)=CCC1CCC(NC(=O)C=CC(C)O)CC1 (stereo not drawn) [Sudemycinol C, sudemycinol C]",IC50,"[3]; 1 h pre-treatment with analog, then 4 μM SD6 for another 4 hours, read-out: IC50 for antagonism of SD6 activity in the TESLR assay",970 nM
"CN(c1ncccc1CNc1nc(Nc2ccc3c(c2)CC(=O)N3)ncc1C(F)(F)F)S(C)(=O)=O [Compound 3, PF-562271]",IC50,[4],203 nM
same,EC50,[1],5560 nM
same,Antagonism of the compound's TESLR activity by sudemycinol C,"[3]; 6 μM compound for one hour, then serial dilutions of sudemycinol C for another 4 hours",did not antagonize
same,Effect on phosphorylation of SF3B1 (immunoblot),[5],inhibited the phosphorylation of SF3B1 protein in HCT116 cells
same,MDM2 alternative splicing (AS) pattern by RT-PCR,[6],dominant MDM2 transcript (the same size as the DMSO control) and an AS isoform of 785 bp
same,DYRK2 IC50,[7],NA (NA: Not Active (less than 50% inhibition at 1 micromolar))
same,IC50,[8],155 nM
same,DYRK1A IC50,[9],NA (NA: Not Active (less than 50% inhibition at 1 micromolar))
same,CK2 IC50,[10],NA (NA: Not Active (less than 50% inhibition at 1 micromolar))
same,IC50,[11],141 nM
same,IC50,[12],863 nM
same,CLK3 IC50,[13],NA (NA: Not Active (less than 50% inhibition at 1 micromolar))
same,IC50,[14],374 nM
same,SRPK1 IC50,[15],NA (NA: Not Active (less than 50% inhibition at 1 micromolar))
same,SRPK3 IC50,[16],NA (NA: Not Active (less than 50% inhibition at 1 micromolar))
same,MAPK1 IC50,[17],NA (NA: Not Active (less than 50% inhibition at 1 micromolar))
same,DYRK1B IC50,[18],NA (NA: Not Active (less than 50% inhibition at 1 micromolar))
same,AKT3 IC50,[19],NA (NA: Not Active (less than 50% inhibition at 1 micromolar))
same,SRPK2 IC50,[20],NA (NA: Not Active (less than 50% inhibition at 1 micromolar))
same,IC50,[21],221 nM
COc1ncc2cc(C(=O)Nc3cc(C(=O)NCc4cccc(Cl)c4)ccc3Cl)c(=O)[nH]c2n1 [Mirk-IN-1],TESLR Maximum fold change,[1],30.7
same,EC50,[1],15000 nM
